From paper PMC9516332 (Frontiers in Oncology, 2022) come the findings set out here.

The structures appear in SMILES notation. Where two headings read alike, the source gives them in different places.

Common to all, as to experiment: Kinase panel profiling at 1 µmol/L (MSA or IMAP), percentage inhibition
Holding throughout (format): biochemical

The target in experiment [1] is panel of 255 wild-type kinases (Homo sapiens, UniProt Q00534). Conditions: read-out: %-inhibition CDK6/CycD3.
The target in experiment [2] is T1, panel of 255 wild-type kinases (Homo sapiens, UniProt Q13188).
T1 sequence (Q13188 1-491): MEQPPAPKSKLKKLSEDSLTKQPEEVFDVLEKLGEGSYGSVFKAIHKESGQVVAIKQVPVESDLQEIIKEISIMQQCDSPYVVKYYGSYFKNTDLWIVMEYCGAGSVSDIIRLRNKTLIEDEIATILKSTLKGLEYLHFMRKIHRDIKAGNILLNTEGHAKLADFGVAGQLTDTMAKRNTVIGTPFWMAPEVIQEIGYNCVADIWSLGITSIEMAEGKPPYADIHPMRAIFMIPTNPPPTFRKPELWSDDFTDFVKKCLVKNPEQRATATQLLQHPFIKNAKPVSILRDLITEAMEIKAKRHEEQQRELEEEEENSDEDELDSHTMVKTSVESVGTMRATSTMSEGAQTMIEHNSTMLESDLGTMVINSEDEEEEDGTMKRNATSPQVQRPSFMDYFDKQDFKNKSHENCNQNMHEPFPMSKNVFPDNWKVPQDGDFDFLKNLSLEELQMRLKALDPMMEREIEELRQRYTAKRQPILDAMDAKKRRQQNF
Conditions: read-out: %-inhibition, MST2.

Experiment [3] concerns the target panel of 255 wild-type kinases (Homo sapiens, UniProt P53350). Conditions: read-out: %-inhibition at 1 µmol/L, PLK1.
Experiment [4] has as its target panel of 255 wild-type kinases (Homo sapiens, UniProt P35968). Conditions: read-out: %-inhibition at 1 µmol/L, KDR.
Experiment [5] deals with panel of 255 wild-type kinases (Homo sapiens, UniProt O60674). Conditions: read-out: %-inhibition at 1 µmol/L, JAK2.
Experiment [6] addresses panel of 255 wild-type kinases (Homo sapiens, UniProt P12931). Conditions: read-out: %-inhibition at 1 µmol/L, SRC.
The target of experiment [7] is panel of 255 wild-type kinases (Homo sapiens, UniProt P07948). Conditions: read-out: %-inhibition at 1 µmol/L, LYNa.
Experiment [8] concerns the target panel of 255 wild-type kinases (Homo sapiens, UniProt P41240). Conditions: read-out: %-inhibition at 1 µmol/L, CSK.
For experiment [9], the target named is panel of 255 wild-type kinases (Homo sapiens, UniProt P06213). Conditions: read-out: %-inhibition at 1 µmol/L, INSR.
Experiment [10] concerns the target T2, panel of 255 wild-type kinases (Homo sapiens, UniProt Q9H093).
T2 sequence (Q9H093 1-628): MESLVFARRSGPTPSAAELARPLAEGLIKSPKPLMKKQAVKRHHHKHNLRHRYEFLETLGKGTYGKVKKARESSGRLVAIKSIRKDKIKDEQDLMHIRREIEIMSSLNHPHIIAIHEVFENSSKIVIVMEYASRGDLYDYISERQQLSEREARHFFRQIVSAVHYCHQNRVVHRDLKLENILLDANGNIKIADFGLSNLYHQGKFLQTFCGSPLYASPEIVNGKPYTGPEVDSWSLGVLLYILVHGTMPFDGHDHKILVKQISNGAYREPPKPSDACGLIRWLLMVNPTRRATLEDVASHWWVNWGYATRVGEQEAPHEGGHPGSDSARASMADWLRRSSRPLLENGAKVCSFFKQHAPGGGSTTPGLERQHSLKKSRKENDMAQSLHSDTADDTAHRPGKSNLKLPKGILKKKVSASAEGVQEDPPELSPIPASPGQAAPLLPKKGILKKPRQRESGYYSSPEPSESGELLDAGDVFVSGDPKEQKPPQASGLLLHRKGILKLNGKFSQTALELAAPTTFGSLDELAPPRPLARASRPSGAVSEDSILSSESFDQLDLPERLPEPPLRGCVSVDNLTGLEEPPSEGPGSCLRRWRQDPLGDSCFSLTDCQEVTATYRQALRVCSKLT
Conditions: read-out: %-inhibition, NuaK2.

Experiment [11] deals with panel of 255 wild-type kinases (Homo sapiens, UniProt Q13153). Conditions: read-out: %-inhibition, PAK1.
Experiment [12] has as its target panel of 255 wild-type kinases (Homo sapiens, UniProt P08581). Conditions: MET; 1 µmol/L single concentration.
Where [13] appears, read: CDK6/CycD3 kinase assay, 1 µmol/L single concentration.
The mark [14] stands for this setting: MST2, 1 µmol/L single concentration.
Where [15] appears, read: kinase PLK1, 1 µmol/L single concentration.
Where [16] appears, read: kinase KDR, 1 µmol/L single concentration.
Setting [17] is: kinase JAK2, 1 µmol/L single concentration.
[18] abbreviates: kinase SRC, 1 µmol/L single concentration.
The mark [19] stands for this setting: kinase LYNa, 1 µmol/L single concentration.
Setting [20] is: kinase CSK, 1 µmol/L single concentration.
[21] abbreviates: kinase INSR, 1 µmol/L single concentration.
[22] abbreviates: NuaK2, 1 µmol/L single concentration.
Where [23] appears, read: PAK1, 1 µmol/L single concentration.

As for `Cc1nc(NC(=O)N2CCC[C@H]2C(N)=O)sc1-c1ccnc(C(C)(C)C(F)(F)F)c1` [alpelisib], the inhibition at 1 µM in experiment [1] (setting [13]) stood at 2%; in [2] (setting [14]), 1.52%; in experiment [3] (setting [15]), 0.0286%; in experiment [4] (setting [16]), 8%; in experiment [5] (setting [17]), 1.85%; in experiment [6] (setting [18]), 3.29%. In addition, the inhibition at 1 µM in experiment [7] (setting [19]) is 1.8%; in experiment [8] (setting [20]) it was -0.289%; in [9] (setting [21]) it was -2.57%; in experiment [10] (setting [22]) it was 6%; in experiment [11] (setting [23]) it was -3.29%; in [12] it was -1%.

For `Cn1cc(-c2cc3c(N4CCN(c5ncc([C@@](C)(N)c6ccc(F)cc6)cn5)CC4)ncnn3c2)cn1` [avapritinib], the inhibition at 1 µM in experiment [1] (setting [13]) was -0.371%; in experiment [2] (setting [14]), 0.434%; in [3] (setting [15]) it was -1.53%; in [4] (setting [16]), 71%; in experiment [5] (setting [17]), 52%; in experiment [6] (setting [18]), 66%. Further, the inhibition at 1 µM in [7] (setting [19]) stood at 87%; in experiment [8] (setting [20]), 2.57%; in experiment [9] (setting [21]), 4.71%; in experiment [10] (setting [22]), 68%; in experiment [11] (setting [23]) it was 0.845%; in [12] it was 16%.

Regarding `CNC(=O)c1ccc(-c2cnc3ncc(Cc4ccc5ncccc5c4)n3n2)cc1F` [capmatinib], the inhibition at 1 µM was -1.65% in [1]; -3.3% in [2]; -5% in [3]; 4% in [4]; 1.58% in experiment [5]; -1.77% in experiment [6]. Also, the inhibition at 1 µM was 1.12% in experiment [7]; -9% in [8]; 4.5% in experiment [9]; -1% in [10]; 4.66% in experiment [11].

Take `CN1CCN(c2ccc(C(=O)Nc3n[nH]c4ccc(Cc5cc(F)cc(F)c5)cc34)c(NC3CCOCC3)c2)CC1` [entrectinib]: the inhibition at 1 µM in experiment [1] (setting [13]) was found to be 1.6%; in experiment [2] (setting [14]), 35%; in [3] (setting [15]) it was 0.212%; in [5] (setting [17]), 100%; in experiment [6] (setting [18]) it was 95%; in experiment [7] (setting [19]), 74%. The inhibition at 1 µM in experiment [8] (setting [20]) was 8%; in experiment [9] (setting [21]) it was 94%; in experiment [10] (setting [22]), 95%; in experiment [11] (setting [23]), -10%; in experiment [12], 24%.

As to `FC(F)(F)c1ccc(CNc2ccc(Cc3c[nH]c4ncc(Cl)cc34)cn2)cn1` [pexidartinib], the inhibition at 1 µM in experiment [1] (setting [13]) was -6.52%; in experiment [2] (setting [14]), 10%; in experiment [3] (setting [15]) it was 6.33%; in experiment [4] (setting [16]) it was 81%; in experiment [5] (setting [17]) it was 35%; in experiment [6] (setting [18]), 0.371%. In addition, the inhibition at 1 µM stood at 24% in experiment [7] (setting [19]); 9% in experiment [8] (setting [20]); 17% in experiment [9] (setting [21]); 5% in experiment [10] (setting [22]); 2% in [11] (setting [23]).

As to `C=CC(=O)N1CCC([C@@H]2CCNc3c(C(N)=O)c(-c4ccc(Oc5ccccc5)cc4)nn32)CC1` [zanubrutinib], the inhibition at 1 µM in [1] (setting [13]) is 3.49%; in [2] (setting [14]), 1.56%; in [3] (setting [15]) it was -0.741%; in experiment [4] (setting [16]), 11%; in experiment [5] (setting [17]), -0.375%; in experiment [9] (setting [21]) it was 4%. For the same compound, the inhibition at 1 µM in [10] (setting [22]) is 0.524%; in [11] (setting [23]) it was -2.56%; in experiment [12] it was -2.35%.
